How the values were obtained:
Test in all cases: relative viability (nuclei count vs DMSO), 5 days (fraction); higher = more cells survive
[1] = compound: CS(=O)(=O)c1ccc(-c2cnc(N)c(C(=O)Nc3ccccc3)n2)cc1 [VE-821] + O=C(c1cc(Cc2n[nH]c(=O)c3ccccc23)ccc1F)N1CCN(C(=O)C2CC2)CC1 [Olaparib] (partner 8 µM)
Outline: (§1)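 Each reported value is a median over duplicate plates. It expresses relative viability: treated-well nuclei count divided by vehicle-well nuclei count. Lung cancer cell lines in 1536-well plates were dosed by pin tool a day after seeding, alone with one drug or with a fixed anchor-drug dose plus five library-drug doses (not always all listed) in √10 steps, and nuclei were counted after 5 days.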

[2] = compound: CS(=O)(=O)c1ccc(C(=O)Nc2ccc(Cl)c(-c3ccccn3)c2)c(Cl)c1 [Vismodegib] + CC(=O)c1c(C)c2cnc(Nc3ccc(N4CCNCC4)cn3)nc2n(C2CCCC2)c1=O [Palbociclib] (partner 0.5 µM)
Outline: as §1

[3] = compound: CS(=O)(=O)c1ccc(C(=O)Nc2ccc(Cl)c(-c3ccccn3)c2)c(Cl)c1 [Vismodegib] + COc1cc2c(Oc3ccc(NC(=O)C4(C(=O)Nc5ccc(F)cc5)CC4)cc3F)ccnc2cc1OCCCN1CCOCC1 [Foretinib] (partner 0.25 µM)
Outline: as §1

[4] = compound: N#CC[C@H](C1CCCC1)n1cc(-c2ncnc3[nH]ccc23)cn1 [Ruxolitinib] + Nc1ncn([C@H]2C[C@H](O)[C@@H](CO)O2)c(=O)n1 [Decitabine] (partner 2 µM)
Outline: as §1

Cell Line | relative viability ([1]; first compound 0.08 µM) | relative viability ([1]; first compound 0.253 µM) | relative viability ([1]; first compound 0.8 µM) | relative viability ([1]; first compound 2.53 µM) | relative viability ([1]; first compound 8 µM) | relative viability ([2]; first compound 0.08 µM) | relative viability ([2]; first compound 0.253 µM) | relative viability ([2]; first compound 0.8 µM) | relative viability ([2]; first compound 2.53 µM) | relative viability ([2]; first compound 8 µM) | relative viability ([3]; first compound 0.08 µM) | relative viability ([3]; first compound 0.253 µM) | relative viability ([3]; first compound 0.8 µM) | relative viability ([3]; first compound 2.53 µM) | relative viability ([3]; first compound 8 µM) | relative viability ([4]; first compound 0.08 µM) | relative viability ([4]; first compound 0.253 µM) | relative viability ([4]; first compound 0.8 µM) | relative viability ([4]; first compound 2.53 µM) | relative viability ([4]; first compound 8 µM)
NCI-H2009 | 0.701 | 0.661 | 0.57 | 0.566 | 0.499 | 0.208 | 0.238 | 0.188 | 0.252 | 0.276 | 1.23 | 1.23 | 1.29 | 1.19 | 1.23 | 0.361 | 0.375 | 0.364 | 0.369 | 0.317
NCI-H2023 | 0.576 | 0.4 | 0.222 | 0.169 | 0.0964 | 0.321 | 0.318 | 0.374 | 0.345 | 0.4 | 0.974 | 0.804 | 0.881 | 0.834 | 0.999 | 0.214 | 0.264 | 0.267 | 0.218 | 0.271
NCI-H2085 | 0.774 | 0.747 | 0.844 | – | 0.694 | 0.459 | 0.474 | 0.483 | 0.467 | 0.502 | 0.86 | 0.96 | 0.989 | 0.755 | 0.796 | 0.598 | 0.531 | 0.624 | 0.515 | 0.496
NCI-H2087 | 0.784 | 0.64 | 0.67 | 0.583 | 0.462 | 0.188 | 0.235 | 0.22 | 0.217 | 0.232 | 1.09 | 1.1 | 0.985 | 1.13 | 0.938 | 0.316 | – | 0.35 | 0.189 | 0.286
NCI-H2126 | 1.01 | 0.907 | 0.969 | 0.927 | 0.682 | 0.329 | 0.335 | 0.342 | 0.333 | 0.328 | 1.19 | 1.13 | – | 1.09 | 1.15 | 0.559 | 0.594 | 0.584 | 0.631 | 0.635
NCI-H2170 | 0.656 | 0.487 | 0.395 | 0.276 | 0.21 | 0.432 | 0.387 | 0.469 | 0.379 | 0.418 | 0.996 | 1 | 1.04 | 1.02 | 1.08 | 0.499 | 0.436 | 0.496 | 0.425 | 0.427
NCI-H2342 | 0.474 | 0.469 | 0.379 | 0.521 | 0.431 | 0.517 | 0.699 | 0.472 | 0.574 | 0.483 | 0.984 | 1.04 | 1.06 | 0.949 | 0.947 | 0.706 | 0.665 | 0.777 | 0.783 | 0.667
NCI-H2347 | 0.574 | 0.531 | 0.598 | 0.618 | 0.635 | 0.443 | 0.418 | 0.419 | 0.448 | 0.488 | 1.12 | 0.599 | – | 0.834 | 0.978 | 0.614 | 0.602 | 0.65 | 0.563 | 0.62
NCI-H2405 | 0.937 | 0.828 | 0.846 | 0.997 | 0.805 | 0.527 | 0.493 | 0.498 | 0.515 | 0.571 | 1.05 | 1.04 | 0.995 | 1.01 | 1.08 | 0.765 | 0.786 | 0.792 | 0.682 | 0.424

Source: the supplement of paper PMC10307832
